In patent US9796711B2, “Substituted pyrazolo[3,4-b]pyridin-6-carboxylic acids and method of use” (AbbVie S.àr.l., priority 2015, dated 2017):

Legend:
ΔF508-CFTR [1] = biological target: T1, ΔF508-CFTR (Homo sapiens, UniProt P13569, DEL508-508); assay: CFTR cell surface levels using HRP-tagged ΔF508-CFTR expressing CFBE cells, intrinsic corrector capacity; format: cell-based; details: for EC50: read-out: EC50
T1 construct: host or cells: CFBE41o-, doxycycline-inducible
How it was run: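 Here the cells express ΔF508-CFTR with horseradish peroxidase inserted in extracellular loop 4, so only rescued channel at the surface gives luminescent signal. Compounds act on their own, 20 h at the reduced temperature of 33 °C; values are percent activity relative to DMSO and a 3 μM corrector.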

ΔF508-CFTR [2] = biological target: T1, ΔF508-CFTR; assay: CFTR cell surface levels using HRP-tagged ΔF508-CFTR expressing CFBE cells, in the presence of a co-corrector; format: cell-based; details: HRP-tagged ΔF508-CFTR expressing CFBE cells, in the presence of 3 μM co-corrector; for EC50: read-out: EC50
How it was run: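 Cells were seeded with 0.5 μg/mL doxycycline and held 68 h at 37 °C. Test compounds plus 3 μM co-corrector (final 0.1% DMSO) were then added for 20 h at 33 °C. Washed cells received HRP substrate, and luminescence was normalized between DMSO and 3 μM co-corrector controls.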

[3] = HRP-tagged ΔF508-CFTR CFBE41o- cells, compounds alone (intrinsic corrector capacity), 20 hours at 33° C., positive control 3 μM corrector
[4] = HRP-tagged ΔF508-CFTR CFBE41o- cells, compounds alone (intrinsic corrector capacity), 20 hours at 33° C.
[5] = HRP-tagged ΔF508-CFTR expressing CFBE cells, intrinsic corrector capacity (no co-corrector), 33° C., 20 hours

T1 sequence (P13569 with tags, fused parts or gaps DEL508-508): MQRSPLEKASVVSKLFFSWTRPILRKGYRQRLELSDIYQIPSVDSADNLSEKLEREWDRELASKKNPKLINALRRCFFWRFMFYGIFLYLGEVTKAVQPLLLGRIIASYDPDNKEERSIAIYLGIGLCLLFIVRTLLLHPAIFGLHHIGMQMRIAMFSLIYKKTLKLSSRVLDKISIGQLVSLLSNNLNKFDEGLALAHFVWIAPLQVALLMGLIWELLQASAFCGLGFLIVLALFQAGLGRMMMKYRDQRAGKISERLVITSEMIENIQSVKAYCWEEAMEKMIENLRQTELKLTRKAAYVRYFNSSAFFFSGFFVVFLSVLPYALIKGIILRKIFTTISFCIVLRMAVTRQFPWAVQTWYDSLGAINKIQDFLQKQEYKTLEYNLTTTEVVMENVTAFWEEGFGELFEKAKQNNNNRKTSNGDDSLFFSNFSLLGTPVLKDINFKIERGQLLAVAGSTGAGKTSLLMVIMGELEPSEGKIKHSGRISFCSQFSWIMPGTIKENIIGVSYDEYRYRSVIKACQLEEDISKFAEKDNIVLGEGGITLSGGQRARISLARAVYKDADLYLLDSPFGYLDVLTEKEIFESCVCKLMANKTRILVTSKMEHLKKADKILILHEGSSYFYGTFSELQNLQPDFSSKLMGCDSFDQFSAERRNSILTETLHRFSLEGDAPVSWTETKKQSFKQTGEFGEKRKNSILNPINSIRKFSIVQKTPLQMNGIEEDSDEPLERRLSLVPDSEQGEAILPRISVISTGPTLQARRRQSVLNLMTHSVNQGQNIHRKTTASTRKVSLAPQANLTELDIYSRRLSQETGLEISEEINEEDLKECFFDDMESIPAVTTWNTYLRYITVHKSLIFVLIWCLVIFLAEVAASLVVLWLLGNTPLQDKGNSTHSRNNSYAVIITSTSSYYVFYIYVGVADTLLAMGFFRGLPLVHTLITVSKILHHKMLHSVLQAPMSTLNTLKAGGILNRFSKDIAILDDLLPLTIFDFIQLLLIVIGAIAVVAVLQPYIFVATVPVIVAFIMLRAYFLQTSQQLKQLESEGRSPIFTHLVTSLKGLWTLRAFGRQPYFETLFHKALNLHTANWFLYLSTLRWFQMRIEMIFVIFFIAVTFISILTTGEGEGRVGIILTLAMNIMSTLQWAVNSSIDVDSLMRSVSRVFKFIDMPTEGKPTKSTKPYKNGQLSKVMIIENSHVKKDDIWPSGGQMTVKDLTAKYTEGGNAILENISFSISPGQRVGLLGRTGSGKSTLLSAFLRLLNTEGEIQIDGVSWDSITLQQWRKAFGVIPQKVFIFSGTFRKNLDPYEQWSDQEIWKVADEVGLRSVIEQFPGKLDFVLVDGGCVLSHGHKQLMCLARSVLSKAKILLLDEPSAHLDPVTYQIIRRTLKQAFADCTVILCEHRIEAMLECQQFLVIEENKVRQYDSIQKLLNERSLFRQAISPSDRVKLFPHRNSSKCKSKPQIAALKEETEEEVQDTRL

`CN(c1ccc(-c2cc(C(=O)O)nc3c2c(C2CCC2)nn3-c2ccccc2)cn1)C1CCOCC1` [compound 183, 3-cyclobutyl-4-{6-[methyl(oxan-4-yl)amino]pyridin-3-yl}-1-phenyl-1H-pyrazolo[3,4-b]pyridine-6-carboxylic acid] was tested, and the “% Activation” value (ΔF508-CFTR [1]; [3]) was 252.9%, the EC50 (ΔF508-CFTR [1]; [4]) was 528 nM and the “% Activation” value (ΔF508-CFTR [2]) was 469.58%. For the same molecule, the EC50 (ΔF508-CFTR [2]) was 460 nM.

For `CC(C)c1nn(-c2cc(N3CCOCC3)ccn2)c2nc(C(=O)O)cc(-c3ccc(N4CCOCC4)cc3)c12` [compound 241, 4-[4-(morpholin-4-yl)phenyl]-1-[4-(morpholin-4-yl)pyridin-2-yl]-3-(propan-2-yl)-1H-pyrazolo[3,4-b]pyridine-6-carboxylic acid], the “% Activation” value (ΔF508-CFTR [1]; [3]) was 60.46%, the EC50 (ΔF508-CFTR [1]; [4]) was 3340 nM and the “% Activation” value (ΔF508-CFTR [2]) was 259.75%. The EC50 (ΔF508-CFTR [2]) was 2140 nM.

In the case of `CC(C)N1CCC(Oc2cc(C(=O)O)nc3c2c(C2CCC2)nn3-c2ccccc2)CC1` [compound 647, 3-cyclobutyl-1-phenyl-4-{[1-(propan-2-yl)piperidin-4-yl]oxy}-1H-pyrazolo[3,4-b]pyridine-6-carboxylic acid], the “% Activation” value (ΔF508-CFTR [1]; [5]) is reported as 119.9%, the EC50 (ΔF508-CFTR [1]; [5]) is reported as 2180 nM and the “% Activation” value (ΔF508-CFTR [2]) is reported as 301.3%. For the same molecule, the EC50 (ΔF508-CFTR [2]) was 2010 nM.

With `CCN1CCN(c2cc(C(=O)O)nc3c2c(C(C)C)nn3-c2ccc(F)cc2)CC1` [compound 772, 4-(4-ethylpiperazin-1-yl)-1-(4-fluorophenyl)-3-(propan-2-yl)-1H-pyrazolo[3,4-b]pyridine-6-carboxylic acid] the “% Activation” value (ΔF508-CFTR [1]; [5]) was 53.82%, the EC50 (ΔF508-CFTR [1]; [5]) was 1670 nM and the “% Activation” value (ΔF508-CFTR [2]) was 226.6%. It also gave an EC50 (ΔF508-CFTR [2]) of 1360 nM.

In the case of `O=C(O)c1cc(N2CCC(N3CC4CC3CO4)CC2)c2c(C3CCC3)nn(-c3ccc(F)cc3)c2n1` (stereo not shown) [compound 852, 3-cyclobutyl-1-(4-fluorophenyl)-4-[4-(2-oxa-5-azabicyclo[2.2.1]heptan-5-yl)piperidin-1-yl]-1H-pyrazolo[3,4-b]pyridine-6-carboxylic acid], the “% Activation” value (ΔF508-CFTR [1]; [5]) is reported as 120.6%, the EC50 (ΔF508-CFTR [1]; [5]) is reported as 1710 nM and the “% Activation” value (ΔF508-CFTR [2]) is reported as 391.4%. The EC50 (ΔF508-CFTR [2]) was 3330 nM.

In the case of `O=C(O)c1cc(N2CCC(F)(F)C2)c2c(C3CCC3)nn(-c3ccccc3)c2n1` [compound 441, 3-cyclobutyl-4-(3,3-difluoropyrrolidin-1-yl)-1-phenyl-1H-pyrazolo[3,4-b]pyridine-6-carboxylic acid], the “% Activation” value (ΔF508-CFTR [1]; [5]) is reported as 111.85%, the EC50 (ΔF508-CFTR [1]; [5]) is reported as 2050 nM and the “% Activation” value (ΔF508-CFTR [2]) is reported as 289.75%. The EC50 (ΔF508-CFTR [2]) was 1510 nM.

In the case of `COCC1CCN(c2cc(C(=O)O)nc3c2c(C(C)C)nn3-c2ccnc(N3CCOCC3)n2)CC1` [compound 589], the “% Activation” value (ΔF508-CFTR [1]; [5]) is reported as 232.15%, the EC50 (ΔF508-CFTR [1]; [5]) is reported as 458 nM and the “% Activation” value (ΔF508-CFTR [2]) is reported as 451.75%. The EC50 (ΔF508-CFTR [2]) was 303 nM.

`CC(C)N1CCC2CN(c3cc(C(=O)O)nc4c3c(C3CCC3)nn4-c3ccc(F)cc3)CCC21` (stereo not shown) [compound 900, 3-cyclobutyl-1-(4-fluorophenyl)-4-[1-(propan-2-yl)octahydro-5H-pyrrolo[3,2-c]pyridin-5-yl]-1H-pyrazolo[3,4-b]pyridine-6-carboxylic acid] was tested, and the “% Activation” value (ΔF508-CFTR [1]; [5]) was 183.97%, the EC50 (ΔF508-CFTR [1]; [5]) was 433 nM and the “% Activation” value (ΔF508-CFTR [2]) was 389.73%. For the same molecule, the EC50 (ΔF508-CFTR [2]) was 216 nM.

`CC(C)c1nn(C2CCCN(CC(F)(F)F)C2)c2nc(C(=O)O)cc(-c3ccc(N4CCOCC4)cc3)c12` (stereo not shown) [compound 161, 4-[4-(morpholin-4-yl)phenyl]-3-(propan-2-yl)-1-[1-(2,2,2-trifluoroethyl)piperidin-3-yl]-1H-pyrazolo[3,4-b]pyridine-6-carboxylic acid] was tested, and the “% Activation” value (ΔF508-CFTR [1]; [3]) was 111.83%, the EC50 (ΔF508-CFTR [1]; [4]) was 921 nM and the “% Activation” value (ΔF508-CFTR [2]) was 333.87%. For the same molecule, the EC50 (ΔF508-CFTR [2]) was 795 nM.

In the case of `CC(C)c1nn(-c2cccc(F)c2)c2nc(C(=O)O)cc(-c3ccc(N4CCOCC4)cc3)c12` [compound 242, 1-(3-fluorophenyl)-4-[4-(morpholin-4-yl)phenyl]-3-(propan-2-yl)-1H-pyrazolo[3,4-b]pyridine-6-carboxylic acid], the “% Activation” value (ΔF508-CFTR [1]; [3]) is reported as 206.5%, the EC50 (ΔF508-CFTR [1]; [4]) is reported as 603 nM and the “% Activation” value (ΔF508-CFTR [2]) is reported as 394.12%. For the same molecule, the EC50 (ΔF508-CFTR [2]) was 338 nM.
